The source of these data is patent publication US11154530B2, “Pharmaceutical composition for treating liver cancer, comprising tetraarsenic hexoxide crystalline polymorph” (CHEMAS CO., LTD., priority 2016, dated 2021).

For assay [1], the system named is human liver cancer cell line SMMC-7721 cells. The assay is described as follows: In vivo efficacy test in mice transplanted with SMMC-7721 cells. The note with it: for Cancer weight: babl/c-nu mice with SMMC-7721 cells; for Percentage (%) of inhibition of cancer growth: from cancer weight vs cancer model group. As for the experimental part: Human liver cancer cell line SMMC-7721 cells (purchased from the Shanghai Cell Bank of Chinese Academy of Sciences) were incubated in RPMI-1640 medium supplemented with 10% FBS, 50 U/ml penicillin, and 50 μg/ml streptomycin in an incubator under conditions of 37° C., 5% CO2, and 95% air. The medium was exchanged every three days.
(§1) The mice were allowed free access to food and water, and were bred in a 12-hr light/12-hr dark cycle.
The twenty five mice were subcutaneously inoculated into the neck site with SMMC-7721 cells at 2×10^7 cells per mouse, and bred for 7 days. […] 5-Fluorouracil (5-FU), which is used as an anticancer drug, was treated for a positive control group.
Cancer tissues were isolated from the mice after seven days of administration of the drug for each group, and visually observed. Cancer weights were measured. In addition, the inhibition of cancer growth was calculated on the basis of the measured weights of the cancer tissues by using the following equation. Percentage of inhibition of cancer growth=(1−(sample treatment group/cancer model group))×100

The test system of assay [2] is human liver cancer cell line H22 cells. The assay is described as follows: In vivo efficacy test in mice transplanted with H22 cells. To be noted: from cancer volume vs cancer model group. As for the experimental part: (§2) Human liver cancer cell line H22 cells (purchased from the Shanghai Cell Bank of Chinese Academy of Sciences) were incubated in RPMI-1640 medium supplemented with 10% FBS, 100 U/ml penicillin, and 100 μg/ml streptomycin in an incubator under conditions of 37° C., 5% CO2, and 95% air. The medium was exchanged every three days.
as §1
(§3) Out of the 50 mice, 10 mice were classified as the normal group, and the remaining 40 animals were subcutaneously inoculated with H22 cells at 1×10^7 cells per mouse, and bred for 7 days. […] 5-Fluorouracil (5-FU), which is used as an anticancer drug, was treated for a positive control group.
(§4) After the administration of the drug for each group, cancer sizes were measured daily using a Vernier caliper, and cancer volumes were calculated using the equation V=0.5×ab^2 (a is the longest diameter of cancer and b is the shortest diameter of cancer). In addition, the inhibition of cancer volume according to the number of days of administration was calculated by the following equation. Percentage of inhibition of cancer growth=(1−(sample treatment group/cancer model group))×100

Assay in assay [3]: as above
To be noted: ICR mice with H22 cells. Here is the method:
as §2, §1, §3, §4

In assay [4] the test system is human liver cancer cells HCCLM3. The assay is described as follows: MTT cell proliferation assay, HCCLM3 cells. It counts as cell-based. As for the experimental part: (§5) Fetal bovine serum (FBS) and cell culture medium were prepared (Hyclone), and dimethyl sulfoxide (DMSO) and 3-(4,5-dimethyl-thiazol-2yl)-2,5-diphenyltetrazolium bromide (MTT, Amresco LLC, USC) were prepared.
(§6) As human cancer cell lines, human liver cancer cells SMMC-7721 and HCCLM3 were obtained from the Shanghai Cell Bank of Chinese Academy of Sciences. The SMMC-7721 cells were incubated in RPMI-1640 medium supplemented with 10% FBS, 50 U/ml penicillin, and 50 μg/ml streptomycin and the HCCLM3 cells were incubated in Dulbecco's modified Eagle's medium (DMEM) supplemented with 10% FBS, 100 U/ml penicillin, and 100 μg/ml streptomycin in a humidified incubator with 5% CO2 and 95% air. […]
(§7) The effects of Example 1 and Comparative Examples 1 to 3 on cell proliferation were assessed using MTT assay. […] All the crystals were completely dissolved by standing at room temperature for 15 minutes, and the absorbance was measured using a micro-plate reader at a wavelength of 570 nm (A570nm).
(§8) The absorbance value of the control group treated without the sample was calculated as 100, and the absorbance value of the treatment group treated with the sample, compared with that of the control group, was calibrated, and the percentage of inhibition of cell proliferation was calculated according to the following equation. […]
(§9) All data were expressed as mean±standard error of the mean (mean±SEM). […]

In assay [5] the test system is human liver cancer cells SMMC-7721. Put plainly: MTT cell proliferation assay, SMMC-7721 cells. It counts as cell-based. As for the experimental part: as §5, §6, §7, §8, §9
Where [6] appears, read: Positive control group, 20 mg/kg oral daily for 7 days.
[7] abbreviates: Positive control group, 20 mg/kg oral daily, 5 days.
[8] abbreviates: Positive control group, 20 mg/kg oral daily, 7 days.
Where [9] appears, read: Positive control group, 20 mg/kg oral daily, 9 days.
The mark [10] stands for this setting: Positive control group, 20 mg/kg oral daily, 11 days.
Setting [11] is: Test Group 1, 4.5 mg/kg oral daily for 7 days.
Setting [12] is: Test Group 2, 2.25 mg/kg oral daily for 7 days.
The mark [13] stands for this setting: Test Group 3, 1.125 mg/kg oral daily for 7 days.
The mark [14] stands for this setting: Test Group 1, 4.5 mg/kg oral daily, 5 days.
Where [15] appears, read: Test Group 1, 4.5 mg/kg oral daily, 7 days.
Where [16] appears, read: Test Group 1, 4.5 mg/kg oral daily, 9 days.
The mark [17] stands for this setting: Test Group 1, 4.5 mg/kg oral daily, 11 days.
Setting [18] is: Test Group 2, 2.25 mg/kg oral daily, 5 days.
Setting [19] is: Test Group 2, 2.25 mg/kg oral daily, 7 days.
Setting [20] is: Test Group 2, 2.25 mg/kg oral daily, 9 days.
Setting [21] is: Test Group 2, 2.25 mg/kg oral daily, 11 days.

For `O=c1[nH]cc(F)c(=O)[nH]1` [5-Fluorouracil, reference compound], the “Cancer weight” value in assay [1] (setting [6]) worked out at 0.72 ± 0.27 g. Besides, the “Percentage (%) of inhibition of cancer growth” value is reported as 32.5% in assay [1] (setting [6]); 26.16% in assay [2] (setting [7]); 46.73% in assay [2] (setting [8]); 52.15% in assay [2] (setting [9]); 63.48% in assay [2] (setting [10]). Also, the “Cancer volume according to number of days of administration” value (“Cancer volume according to number” for short) in assay [3] (setting [7]) is listed as 165.62 mm^3; in assay [3] (setting [8]), 212.78 mm^3; in assay [3] (setting [9]), 318.07 mm^3; in assay [3] (setting [10]), 661.97 mm^3.

On to tetraarsenic hexoxide [Example 1], for which the “Cancer weight” value in assay [1] (setting [11]) is listed as 0.65 ± 0.17 g; in assay [1] (setting [12]), 0.70 ± 0.10 g; in assay [1] (setting [13]), 0.77 ± 0.12 g. Also, the “Percentage (%) of inhibition of cancer growth” value in assay [1] (setting [11]) is 39.7%; in assay [1] (setting [12]), 34.3%; in assay [1] (setting [13]) it was 28.0%; in assay [2] (setting [14]), 25.06%; in assay [2] (setting [15]), 40.36%; in assay [2] (setting [16]) it was 41.50%. The “Percentage (%) of inhibition of cancer growth” value in assay [2] (setting [17]) turned out to be 51.42%; in assay [2] (setting [18]) it was 3.36%; in assay [2] (setting [19]), 24.23%; in assay [2] (setting [20]), 41.54%; in assay [2] (setting [21]) it was 45.52%. Also, the “Tumor tissue sizes (visual observation)” value in assay [1] (isolated cancer tissues after 7 days of oral administration, FIG. 6) is “reduced”. Besides, the “Percentage of inhibition of HCCLM3 cell proliferation compared with Comparative Example 1” value in assay [4] (incubation for 48 hours and 72 hours, 0.625-80 μM, FIGS. 3A-B) is reported as “higher”. For the same compound, the “Percentage of inhibition of HCCLM3 cell proliferation compared with Comparative Example 2 or 3” value in assay [4] (mixtures of Example 1 and Comparative Example 1 at 4:1 or 1:1, FIGS. 3A-B) was “higher”. Moreover, in assay [5] (incubation for 48 hours and 72 hours, 0.625-80 μM, FIGS. 2A-B), the “Percentage of inhibition of SMMC-7721 cell proliferation compared with Comparative Example 1” value is given as “higher”. In assay [5] (mixtures of Example 1 and Comparative Example 1 at 4:1 or 1:1, FIGS. 2A-B), the “Percentage of inhibition of SMMC-7721 cell proliferation compared with Comparative Example 2 or 3” value is recorded as “higher”. Also, the “Cancer volume according to number” value was found to be 168.09 mm^3 in assay [3] (setting [14]); 238.22 mm^3 in assay [3] (setting [15]); 388.85 mm^3 in assay [3] (setting [16]); 880.55 mm^3 in assay [3] (setting [17]); 216.75 mm^3 in assay [3] (setting [18]); 302.66 mm^3 in assay [3] (setting [19]). In addition, the “Cancer volume according to number” value in assay [3] (setting [20]) worked out at 388.56 mm^3; in assay [3] (setting [21]) it was 987.61 mm^3.
